Results taken from patent EP1206941A1, “ACTIVITY PO[…] CHEMOTHERAPEUTICS, ANTICANCER COMPOSITIONS AND METHOD FOR POTENTIATING THE ACTIVITY OF CHEMOTHERAPEUTICS” (HISAMITSU PHARMACEUTICAL CO. INC., priority 1999, dated 2001).
Like-named read-outs stand apart in the source and are kept apart here. *1 amine or outer side, *2 acyl side, *3 side chain or, on linkers, in order; H or OH if unused. Where a SMILES comes first, the peptide text is derived from it. Bridges are numbered along the chain shown (N, C = ends). Roman numbers before positions name the chains, in order. [ ]: non-standard residue; d: D form. Actinocin(9to1) = Cc1c2oc3c(C)ccc(C(=O)[*:1])c3nc-2c(C(=O)[*:2])c(N)c1=O; NMeV = CN[C@H](C(=O)O)C(C)C; Sar = CNCC(=O)O

Test system: Murine melanoma B16 · BL6 cells
Test: Assay for apoptosis-inducing activity (TNF bioassay, crystal violet staining)
Type: cell-based
Conditions: for potentiation of apoptosis-inducing activity: ED50 alone versus ED50 in the presence of peptide (SEQ ID NO:2) 50 µg/ml; for EC50: Mus musculus, B16-BL6, 19 h, 19 hours, Probit method, read-out: ED50 (apoptosis-inducing activity)
Method: The potentiating effects on the apoptosis-inducing activity of chemotherapeutic agents were evaluated based on whether or not the apoptosis-inducing activity of anticancer agents of the apoptosis-inducing type would be affected by the combined use of the aforementioned synthetic peptide.
Specifically, the apoptosis-inducing activity of anticancer agents of three kinds of apoptosis-inducing type agents was compared between the presence of the peptide and the absence of the peptide. Determination of the apoptosis-inducing activity was carried out according to TNF bioassay (K. Hirano et al., J. Biochem., 105, 120, 1989). The details are provided below.
A 96-well was coated with human plasma fibronectin at a concentration of 5 µg/ml (prepared according to the method of Fukai et al., J. Biol. Chem., 266, 8807, 1991) and was subjected to blocking with bovine serum albumin (Sigma), after which it was suspended in a serum-free culture: the culture was a mixture of Dulbeccos Modified Eagle Medium and Ham F12 medium at a volume ratio of 1:1 and will be referred to as DMEM/Ham medium hereafter (Nissui Pharmaceutical Co. Ltd.). Murine melanoma B16 · BL6 cells were inoculated onto the plate at 2x10^4 cells/well. After cell adhesion and distention were confirmed by cultivating the cells at 37 °C and under 5% CO2 atmosphere for 2 hours, the culture supernatant was removed and a mixed solution comprising a chemotherapeutic agent and the peptide was added thereto. Cultivation was conducted for 19 hours. The peptide was prepared to give a final concentration of 50 µg/ml, and the chemotherapeutic agents were dissolved in DMEM/Ham medium at a variety of concentrations. As controls, only the peptide and only the chemotherapeutic agent at the same concentrations as those described were added. Cultivation was conducted for 19 hours. In Example 9 doxorubicin (abbreviated as DOX) was used; in Example 10 VCR was used; and in Example 11 AcD was used. DOX was also purchased from Sigma. After cultivation, the above mixed solution was removed and exchanged with a DMEM/HaM medium containing 10% bovine fetal serum (URH Biosciences) for further cultivation overnight. After fixing with 5% formaldehyde (Wako Pure Chemical Industries Ltd.), the cells having undergone apoptosis were removed through washing and the cells adhered to the plate were stained with a 0.5% crystal violet solution. Excessive dye was washed out with water. After lyzing the cells with 1% SDS and extracting the dye, absorbance at a wavelength of 595 nm was measured with a microplate reader (Spectra Rainbow Thermo; Wako Pure Chemical Industries Ltd.).

[1] = chemotherapeutic agent used alone
[2] = in the presence of peptide (SEQ ID NO:2) 50 µg/ml

Row | SMILES | potentiation of apoptosis-inducing activity | EC50 [1] | EC50 [2]
1 | Cc1c2oc3c(C)ccc(C(=O)N[C@@H]4C(=O)N[C@H](C(C)C)C(=O)N5CCC[C@H]5C(=O)N(C)CC(=O)N(C)[C@@H](C(C)C)C(=O)O[C@@H]4C)c3nc-2c(C(=O)N[C@@H]2C(=O)N[C@H](C(C)C)C(=O)N3CCC[C@H]3C(=O)N(C)CC(=O)N(C)[C@@H](C(C)C)C(=O)O[C@@H]2C)c(N)c1=O [AcD, actinomycin D] (I: T[dV]P[Sar][NMeV] / II: T[dV]P[Sar][NMeV]; ester I:1-I:C, II:1-II:C; linker I:N-II:N via Actinocin(9to1)) | ~40,000 fold | 763 nM | 0.0145 nM
2 | COc1cccc2c1C(=O)c1c(O)c3c(c(O)c1C2=O)C[C@@](O)(C(=O)CO)C[C@@H]3O[C@H]1C[C@H](N)[C@H](O)[C@H](C)O1 [DOX, doxorubicin] | ~7.6 fold | 0.293 µg/mL | 0.039 µg/mL
3 | CC[C@]1(O)C[C@H]2CN(CCc3c([nH]c4ccccc34)[C@@](C(=O)OC)(c3cc4c(cc3OC)N(C=O)[C@H]3[C@@](O)(C(=O)OC)[C@H](OC(C)=O)[C@]5(CC)C=CCN6CC[C@]43[C@@H]65)C2)C1 [VCR, vincristin] | ~27,000 fold | 111 µg/mL | 0.0036 µg/mL
